# From US12139491B2, “Diketopiperazine derivatives as calcium ATPase inhibitor for enhancing anticancer activity” (HOLOSMEDIC, priority 2018, dated 2024)
# What was measured:
# [1] = tested on: cancer stem cell-like colorectal cancer cells derived from patients with relapse and metastasis after radiation therapy, xenografted; test: Tumor volume and weight in colorectal cancer cell xenograft mouse; type: in vivo, BALB/c nude female mouse; settings: oral compound (27 mg/kg) and X-rays at 5 Gy
# Description: (§1) After cancer stem cell-like colorectal cancer cells, which were derived from patients with relapse and metastasis after radiation therapy, were cultured in vitro, the cultured cells were injected subcutaneously into the upper left flank of a BALB/c nude female mouse to be 2.0×10^7 cells/mouse. […] The mice were anesthetized to measure a change in tumor volume daily using calipers for 40 days, and the result is shown in FIG. 9. The tumor volume was calculated by the above-described Equation 1. In addition, after 40 days, a tumor weight was measured, and the result is shown in FIG. 10, and for 41 days, the body weight of the mouse was measured, and the result is shown in FIG. 11.
# [2] = tested on: cancer stem cell-like thyroid cancer cells derived from patients with relapse and metastasis after paclitaxel administration, xenografted; test: Tumor volume in thyroid cancer cell xenograft mouse; type: in vivo, BALB/c nude female mouse; settings: 60 days, FIG. 3
# Description: After cancer stem cell-like thyroid cancer cells derived from patients with relapse and metastasis after paclitaxel administration were cultured in vitro, the cultured cells were injected subcutaneously into the upper left flank of a BALB/c nude female mouse to be 2.0×10^7 cells/mouse. […] The mice were anesthetized to measure a change in tumor volume daily using calipers for 60 days, and the result is shown in FIG. 3. The tumor volume was evaluated using the following Equation 1. Tumor volume=L×S^2/2 [Equation 1] • (however, L is the longest diameter, and S is the shortest diameter)
# [3] = tested on: cancer stem cell-like thyroid cancer cells derived from patients with relapse and metastasis after paclitaxel administration; test: Paclitaxel activity enhancement in paclitaxel-resistant thyroid cancer cells (cell number, viability); type: cell-based, human
# Description: After cancer stem cell-like thyroid cancer cells derived from patients with relapse and metastasis after paclitaxel administration (ATC) were treated with a compound of Preparation Example 1-1 (150 nM) only; paclitaxel (12 nM) only; or a combination of paclitaxel (5 nM) and a compound of Preparation Example 1-1 (70 nM), a change in number of cells over time was confirmed. In addition, a change in cell viability according to a treatment concentration of paclitaxel, the compound of Preparation Example 1-1, or the combination of paclitaxel and the compound of Preparation Example 1-1 is shown in FIG. 1. In addition, the change in cell viability according to the treatment concentration of paclitaxel, the compound of Preparation Example 1-1 and the combination thereof was measured, and the result is shown in FIG. 2.
# [4] = Body weight of stomach cancer cell xenograft mice; settings: 41 days, compared with negative control, stated as no toxicity problem, FIG. 7
# [5] = tested on: cancer stem cell-like stomach cancer cells derived from patients with relapse and metastasis after irinotecan administration, xenografted; test: Tumor volume and weight in stomach cancer cell xenograft mouse
# [6] = Body weight of colorectal cancer cell xenograft mice; type: in vivo, BALB/c nude female mouse; settings: 41 days, compared with negative control, stated as no toxicity problem, FIG. 11
# Description: as §1
# [7] = tested on: cancer stem cell-like colorectal cancer cells derived from patients with relapse and metastasis after radiation therapy; test: Radiation treatment activity enhancement in radiation-resistant colorectal cancer cells (cell number); type: cell-based, human; settings: compound (75 nM) and X-rays at 5 Gy; FIG. 8
# Description: After cancer stem cell-like colorectal cancer cells derived from patients with relapse and metastasis after radiation therapy were treated with the compound of Preparation Example 1-1 (150 nM) only; Faxitron X-rays (Faxitron Bioptics, AZ, USA) at an intensity of 5 Gy (RT); or the compound of Preparation Example 1-1 (75 nM) and the X-rays at an intensity of 5 Gy, the change in number of cancer cells over treatment time was measured, and the result is shown in FIG. 8.
# [8] = tested on: cancer stem cell-like stomach cancer cells derived from patients with relapse and metastasis after irinotecan administration; test: Irinotecan activity enhancement in irinotecan-resistant stomach cancer cells (cell number); type: cell-based, human; settings: FIG. 4
# Description: After cancer stem cell-like stomach cancer cells derived from patients with relapse and metastasis after irinotecan administration were treated with the compound of Preparation Example 1-1 only (170 nM); irinotecan only (8.9 μM); or a combination of irinotecan (4.5 μM) and the compound of Preparation Example 1-1 (75 nM), a change in cell number over treatment time was measured, and the result is shown in FIG. 4.
# [9] = tested on: SKOV3-TR (paclitaxel-resistant epithelial ovarian cancer cell line); test: Cell morphology and viability (ImageJ living cell count) in SKOV3-TR; type: cell-based; settings: paclitaxel 5 μM; morphological analysis
# Description: (§2) To confirm the anticancer therapeutic activity enhancing effects of the compounds of Preparation Examples, the compounds or salts prepared in Preparation Examples 1-1 to 31 (hereinafter, the compounds of Preparation Examples) were used, and cellular experiments were carried out with an epithelial ovarian cancer cell line SKOV3 and SKOV3-TR derived therefrom and produced as a resistant cell line having resistance to a paclitaxel anticancer agent. […]
# (§3) For the morphological analysis of the cells, 24, 48 and 72 hours after paclitaxel treatment, images of cells treated with “None (untreated sample)”, “DMSO (paclitaxel solvent)”, “ethanol (solvent for the compounds of Preparation Examples)”, “paclitaxel”, “paclitaxel+ethanol”, and “paclitaxel+the compound of Preparation Example 1-2 (L19001)” were obtained. In addition, for the analysis of cell viability, 72 hours after treatment with paclitaxel or the compound of each Preparation Example only, or co-treatment with paclitaxel and the compound of each Preparation Example, the number of living cells was measured through Image J analysis.
# (§4) The cell viability of the two types of cancer cell lines was analyzed by measuring the number of living cells using the ImageJ program.
# [10] = tested on: SKOV3 (epithelial ovarian cancer cell line); test: Cell morphology and viability (ImageJ living cell count) in SKOV3; type: cell-based; settings: paclitaxel 0.2 μM; morphological analysis
# Description: as §2, §3, §4
smiles,measurement,setting,value
"CCc1oc2ccccc2c1CN1CCN2C(=O)CNC(=O)C2C1 (centres unmarked) [Preparation Example 1-1, 2-((2-ethylbenzofuran-3-yl)methyl)hexahydro-2H-pyrazino[1,2-a]pyrazine-6,9-dione]",tumor volume,"[1]; 40 days, FIG. 9",remarkably decreased
same,tumor weight,"[1]; after 40 days, FIG. 10",remarkably decreased
same,tumor volume,[2]; oral compound (27 mg/kg) then intraperitoneal paclitaxel (11 mg/kg),remarkably decreased
same,number of stem cell-like thyroid cancer cells,"[3]; combination of paclitaxel (5 nM) and compound (70 nM), FIG. 1",remarkably decreased
same,cell viability of stem cell-like thyroid cancer cells,"[3]; combination of paclitaxel and compound, FIG. 2",remarkably decreased
same,change in body weight of the mouse,[4]; oral compound (32 mg/kg) in combination with irinotecan (55 mg/kg),no change
same,change in body weight of the mouse,[4]; oral compound (70 mg/kg) alone,no change
same,tumor volume,"[5]; oral compound (32 mg/kg) and irinotecan (55 mg/kg), 40 days, FIG. 5",remarkably decreased
same,tumor weight,"[5]; oral compound (32 mg/kg) and irinotecan (55 mg/kg), after 40 days, FIG. 6",remarkably decreased
same,change in body weight of the mouse,[6]; oral compound (27 mg/kg) in combination with radiation therapy (5 Gy),no change
same,change in body weight of the mouse,[6]; oral compound (60 mg/kg) only,no change
same,number of cancer cells,[7],remarkably decreased
same,number of cancer cells,[8]; combination of irinotecan (4.5 μM) and compound (75 nM),remarkably decreased
"CCc1c2c(nc3ccc(OC(=O)N4CCC(N5CCCCC5)CC4)cc13)-c1cc3c(c(=O)n1C2)COC(=O)[C@]3(O)CC [irinotecan, reference compound]",change in tumor weight,"[5]; oral irinotecan (75 mg/kg) only, after 40 days, compared with negative control, FIG. 6",no change
same,change in number of cancer cells,"[8]; irinotecan only (8.9 μM), compared with negative control",no change
"CC(=O)O[C@H]1C(=O)[C@@]2(C)[C@H]([C@H](OC(=O)c3ccccc3)[C@]3(O)C[C@H](OC(=O)[C@H](O)[C@@H](NC(=O)c4ccccc4)c4ccccc4)C(C)=C1C3(C)C)[C@]1(OC(C)=O)CO[C@@H]1C[C@@H]2O [paclitaxel, reference compound]",change in tumor volume,"[2]; intraperitoneal paclitaxel (25 mg/kg) only, compared with negative control",no change
same,change in cancer cell number,"[3]; paclitaxel (12 nM) only, compared with negative control, FIG. 1",no change
same,viability of cancer cells,"[3]; paclitaxel only, compared with negative control, FIG. 2",no change
same,number of living cells (induction of cell death and inhibition of cell growth),[9],decrease
same,number of living cells (induction of cell death and inhibition of cell growth),[10],decrease
